US20180027813A1, “Use of an agent to control resistant rodents” (priority 2015, published 2018)

Tests used:
[1] = system: brown rat VKORC1 strain L120Q Berkshire; parameters: key: X = Strain exhibits a practical resistance to:; conditions: cited from earlier work
[2] = system: brown rat VKORC1 strain Y139C; parameters: key to Practical resistance of the strain: X = Strain exhibits a practical resistance to:; conditions: cited from earlier work; for Sensitivity of animals with VKORC1 Tyr139Cys (in words): Y139C brown rats and house mice, difenacoum in rats only; for Practical resistance of the strain / Resistance in laboratory and field experiments (in words): strain Y139C
[3] = system: brown rat VKORC1 strain Y139S; parameters: key to Practical resistance of the strain: X = Strain exhibits a practical resistance to:; conditions: cited from earlier work; for Practical resistance of the strain: strain Y139S; for Tolerance / practical resistance (in words): strain Y139S (Wales)
[4] = system: brown rat VKORC1 strain Y139F; parameters: key: X = Strain exhibits a practical resistance to:; conditions: cited from earlier work
[5] = system: brown rat VKORC1 strain L128Q; parameters: key: X = Strain exhibits a practical resistance to:; conditions: cited from earlier work
[6] = system: brown rats of the resistant strain Y139C; assay: Feeding experiment with brown rats of the resistant strain Y139C (Example 1); type: in vivo, brown rat; conditions: for Mortality (in words): resistant rats
Method: A cholecalciferol concentration of 100 mg/kg is enough to make it possible to achieve mortality rates of up to 100% (see the examples).
[…] received feed baits, as described below, over a period of 4 days. Consumption and mortality were determined afterwards. One group (6 rats, Group 1) was fed a feed bait consisting of coumatetralyl (375 mg/kg) and cholecalciferol (100 mg/kg). The other group (Group 2) was fed coumatetralyl on its own (375 mg/kg). All animals consumed the feed baits except for one animal from Group 2. Consumption was highest during the first 24 hours. On the third and fourth day, there was only little consumption. […] Two males each consumed approximately 47 mg/kg coumatetralyl and 12.5 mg/kg cholecalciferol (based on the body weight). The females consumed from 50 to 79 mg/kg coumatetralyl and from 13 to 21 mg/kg cholecalciferol (based in each case on the body weight). In Group 2, no mortality was observed, although the animals consumed 94 mg/kg coumatetralyl (mean value based on the body weight).

[7] = system: brown rat (Rattus norvegicus) strain Y139C; conditions: BCR resistance test; cited from earlier work
[8] = system: brown rat (Rattus norvegicus) strain Y139F; conditions: BCR resistance test; cited from earlier work
[9] = system: resistant rat strain "Westphalia" (VKORC1 Y139C); assay: Laboratory feeding tests with single anticoagulants; type: in vivo; conditions: feed baits with one active ingredient
Excerpt: The resistant rat strain “Westphalia”, characterized by the VKORC1 polymorphism Y139C, is resistant to the second-generation anticoagulants bromadiolone and difenacoum, and also to the first-generation active ingredients. Feed baits containing one of these active ingredients in the authorized concentration are not effective against animals of this strain.

[10] = system: brown rat (Rattus norvegicus) strain L120Q Hampshire; conditions: BCR resistance test; cited from earlier work
[11] = system: brown rat (Rattus norvegicus) strain Y139S; conditions: determined on the basis of LD50; cited from earlier work
[12] = system: rats caught on the farm (strain Y139C area); assay: Blood coagulation test with coumatetralyl on rats caught on the farm; type: in vivo, rat; conditions: blood coagulation test before control
Excerpt: The term “resistance(s)” in the context of the invention refers to “practical resistance”, characterized in that the rodenticide in question no longer achieves sufficient biological efficacy even with proper use and good acceptance of the bait by the rodents (see also Greaves—1994, Buckle A. P. and Smith R. H. eds. “Rodent Pests and their Control”, CABI, Wallingford, Oxon, UK, pages 197-217). A person skilled in the art can make a clear and unambiguous assessment in accordance with this definition as to whether a practical resistance is present or not. In general, the degree of “resistance” can be described by specifying a resistance factor. The resistance factor (RF) is usually calculated on the basis of the lethal dose (LD50) or of the effective dose (ED50). […] LD50 and ED50 are each determined experimentally for each strain. […] Until the 1980s, RFs were determined on the basis of the LD50. This method was later replaced by blood coagulation tests (BCR resistance tests), by means of which the ED50 can be determined more accurately (Prescott et al. 2007: A standardised BCR-resistance test for all anticoagulant rodenticides. Int. J. Pest Mgt. 53 (4), 265-272). Therefore, it is preferred according to the invention that RF be calculated via the quotient formed from the ED50 of the resistant strain and of a sensitive strain considered to be the reference. […]

O=c1oc2ccccc2c(O)c1C1CC(c2ccc(-c3ccccc3)cc2)Cc2ccccc21 (stereo not drawn) [difenacoum, 3-(3′-paradiphenylyl-1′,2′,3′,4′-tetrahydro-1′-naphthyl)-4-hydroxycoumarin]
Practical resistance of the strain [1]: X | Sensitivity of animals with VKORC1 Tyr139Cys (in words) [2]: virtually completely insensitive | Practical resistance of the strain [2]: X | Resistance in laboratory and field experiments (in words) [2]: resistant

O=C1c2ccccc2C(=O)C1C(=O)C(c1ccccc1)c1ccc(Cl)cc1 (stereo not drawn) [chlorophacinone, (1′-p-chlorophenyl-1′-phenyl)-2-acetylindane-1,3-dione]
Practical resistance of the strain [1]: X | Practical resistance of the strain [3]: X | Practical resistance of the strain [4]: X | Practical resistance of the strain [5]: X | Practical resistance of the strain [2]: X

C=C1CC[C@H](O)C/C1=C/C=C1\CCC[C@]2(C)[C@@H]([C@H](C)CCCC(C)C)CC[C@@H]12 [cholecalciferol]
Mortality (in words) ([6]; cholecalciferol by itself at 100 mg/kg): does not cause mortality

CC(=O)CC(c1ccccc1)c1c(O)c2ccccc2oc1=O (stereo not drawn) [warfarin, (1-phenyl-2-acetyl)-3-ethyl-4-hydroxycoumarin]
Practical resistance of the strain [1]: X | Tolerance / practical resistance (in words) [3]: somewhat more tolerant | Practical resistance of the strain [3]: X | Practical resistance of the strain [4]: X | Practical resistance of the strain [5]: X | Sensitivity of animals with VKORC1 Tyr139Cys (in words) [2]: virtually completely insensitive | Practical resistance of the strain [2]: X

O=c1oc2ccccc2c(O)c1C(CC(O)c1ccc(-c2ccc(Br)cc2)cc1)c1ccccc1 (stereo not drawn) [bromadiolone]
Practical resistance of the strain [1]: X | Tolerance / practical resistance (in words) [3]: no practical resistance | Resistance factor (RF) for bromadiolone [7]: 15-17 | Practical resistance of the strain [4]: X | Resistance factor (RF) for bromadiolone [8]: 7-9 | Practical resistance of the strain [5]: X | Mortality [9]: no mortality | Sensitivity of animals with VKORC1 Tyr139Cys (in words) [2]: virtually completely insensitive | Practical resistance of the strain [2]: X | Resistance in laboratory and field experiments (in words) [2]: resistant | Resistance factor (RF) for bromadiolone [10]: 10-14 | Resistance factor (RF) for bromadiolone [11]: 2.7-6.9

O=c1oc2ccccc2c(O)c1C1CCCc2ccccc21 (stereo not drawn) [coumatetralyl, 3-(1′,2′,3′,4′-tetrahydro-1′-naphthyl)-4-hydroxycoumarin]
Practical resistance of the strain [1]: X | Practical resistance of the strain [3]: X | Mortality (in words) ([6]; coumatetralyl by itself): does not cause mortality | Mortality ([6]; feed baits over 4 days, 6 rats of strain Y139C per group): no mortality | Practical resistance of the strain [4]: X | Share of rats on the farm resistant for coumatetralyl [12]: approximately 46% | Practical resistance of the strain [5]: X | Mortality [9]: no mortality | Sensitivity of animals with VKORC1 Tyr139Cys (in words) [2]: virtually completely insensitive | Practical resistance of the strain [2]: X
